Measurements reported in US20250154163A1, “Pyrimidinone-Containing 17-Beta-Hydroxysteroid Dehydrogenase Type 13 Inhibitors” (ENANTA PHARMACEUTICALS, INC., priority 2023, published 2025).

Target: T1, human HSD17β13 (stable HEK293T cell line overexpressing human HSD17β13) (Homo sapiens, UniProt Q7Z5P4)
T1 construct: expressed in transfected cells
T1 sequence (Q7Z5P4 20-300): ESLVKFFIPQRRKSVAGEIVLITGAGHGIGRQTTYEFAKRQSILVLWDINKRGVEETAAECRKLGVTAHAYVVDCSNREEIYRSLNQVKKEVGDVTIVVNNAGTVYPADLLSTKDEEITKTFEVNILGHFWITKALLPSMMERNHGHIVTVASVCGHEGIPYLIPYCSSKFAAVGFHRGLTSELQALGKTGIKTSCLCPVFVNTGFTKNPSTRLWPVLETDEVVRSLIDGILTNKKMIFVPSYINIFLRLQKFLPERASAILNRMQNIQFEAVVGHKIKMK
Assay: HSD17β13 inhibitor cell-based screening assay (conversion of estradiol-d2 to estrone-d2 by RF-MS)
Conditions: conversion of estradiol-d2 to estrone-d2 after 24 hours
Protocol: The purpose of this cell-based assay is to determine the cellular efficacy (IC50) of HSD17β13 inhibitors in a stable HEK293 T cell line overexpressing human HSD17β13. The assay measures by Rapid Fire mass-spectrometry (RF-MS) the conversion of estradiol-d2 to estrone-d2. Cytotoxicity was also assessed via luminescent signal generated by the ATPlite viability assay reagent. To screen compounds for HSD17013 inhibition, black 384-well plates were seeded with 1000× concentration of compounds in a 9-point 1:3 dilution curve (final top concentration of 10 μM) as well as 1000× concentration of 17β-estradiol-d2 (5 μM final concentration) added to all wells. HEK293T cells stably overexpressing human HSD17013 and the parent HEK293T cell lines were then seeded in the plates on top of the compounds and substrate in MEM media containing 1% charcoal/dextran-treated FBS. Supernatant is collected and immediately frozen after 24 hours of incubation, and conversion of estradiol-d2 to estrone-d2 is measured at Pure Honey by RF-MS. The remaining media in the plate was removed from the wells and replaced with ATPlite viability assay reagent. Luminescent signal from the ATPlite reagent was measured on the Envision plate reader. 10 μL of 10 mM compounds stocks (1000×) dissolved in DMSO were pipetted into the appropriate wells on the 384 LDV plate (Labcyte; cat. no.: LP-0200) and the appropriate volumes of DMSO solvent were included onto an intermediate plate to further dilute the compound stocks to complete the 9-pt dose curve (final top concentration of 10 μM). 10 μL per well of 5 mM estradiol-d2 (1000×) (Cayman; item no.: 9002846) (5 μM final concentration) dissolved in DMSO was seeded into the appropriate number of wells on the same source plate as the compounds. The Echo 650 (Labcyte) was used for compound dilutions and dispensing both the compounds and the substrate onto a dry 384-well black assay plate (Falcon/Corning; cat. no.:353962). Afterwards, cells were immediately counted and seeded onto the plate. Cells were cultured for expansion in EMEM (ATCC; cat. no.: 30-2003)+10% FBS (Hyclone; cat. no.: SH3007003)+1×PenStrep (Gibco; cat. no.: 15140-122). All media for stable cell line overexpressing HSD17013 also included […] zeocin (Invitrogen; cat. no.: 46-0509) for selection. To prepare cells for seeding into the 384-well assay plate, cells were trypsinized for 3 minutes in the incubator. The Trypsin-EDTA (0.25%) (Gibco; cat. no.: 25200056) was neutralized with EMEM complete culture medium warmed to 37° C. Cells were then centrifugated at 300×g for 5 minutes at room temperature. The cell pellet was resuspended in phenol red-free MEM (Gibco; cat. no.: 51200-038)+1% charcoal/dextran-treated FBS (Hyclone; cat. no.: SH3006803) and 1×PenStrep warmed to 37° C. Cells were then counted using the TC20 automated cell-counter (Bio-Rad) and disposable duel chamber counting slides (Bio-Rad; cat. no.: 1450016) for a cell density of 1.5E5 cells/mL to then seed into the assay plate at 7.5E3 cells/well with 50 μL of media per well. Prior to the 24-hour time point, a solution of 1% formic acid (10×) (Honeywell; cat. no.: 94318) in MEM phenol red-free MEM+1% charcoal/dextran-treated FBS and 1×PenStrep was made. ATPlite luminescent ATP detection reagent (PerkinElmer; cat. no.: 6016739) was prepared according to the manufacturer's instructions. A new 384-well Falcon plate (collection plate) was seeded with 2 μL per well of 10× formic acid and then 18 μL of cell supernatant was added onto the formic acid, resulting in a 20 μL per well solution of 0.1% formic acid (1×) in supernatant. The plate of collected supernatant was immediately frozen on dry ice before being stored at −80° C. The collection plate was shipped to Momentum Biotechnologies for analysis. The remaining supernatant in the assay plate was discarded and 25 μL of ATPlite reagent was added to each well. […]

Row | SMILES | IC50
1 | COc1ccc(-c2nc3sc4c(S(=O)(=O)O)cccc4c3c(=O)n2Cc2cnco2)c(C2CC2)c1 [Example 12, 2-(2-cyclopropyl-4-methoxyphenyl)-3-(oxazol-5-ylmethyl)-4-oxo-3,4-dihydrobenzo[4,5]thieno[2,3-d]pyrimidine-8-sulfonic acid] | 1000 to 100000 nM
2 | COc1ccc(-c2nc3sc4c(OC(C)=O)c(Cl)ccc4c3c(=O)n2Cc2cnco2)c(C2CC2)c1 [Example 27, 7-chloro-2-(2-cyclopropyl-4-methoxyphenyl)-3-(oxazol-5-ylmethyl)-4-oxo-3,4-dihydrobenzo[4,5]thieno[2,3-d]pyrimidin-8-yl acetate] | < 100 nM
3 | COc1ccc(-c2nc3sc4c(O)c(C=O)ccc4c3c(=O)n2Cc2cnco2)c(C2CC2)c1 [Example 31, 2-(2-cyclopropyl-4-methoxyphenyl)-8-hydroxy-3-(oxazol-5-ylmethyl)-4-oxo-3,4-dihydrobenzo[4,5]thieno[2,3-d]pyrimidine-7-carbaldehyde] | 1000 to 100000 nM
4 | COc1ccc(-c2nc3sc4c(O)c(C#N)ccc4c3c(=O)n2Cc2cnco2)c(C2CC2)c1 [Example 33, 2-(2-cyclopropyl-4-methoxyphenyl)-8-hydroxy-3-(oxazol-5-ylmethyl)-4-oxo-3,4-dihydrobenzo[4,5]thieno[2,3-d]pyrimidine-7-carbonitrile] | 500 to 1000 nM
5 | COc1ccc(-c2nc3sc4c(O)c(C(=O)O)ccc4c3c(=O)n2Cc2cnco2)c(C2CC2)c1 [Example 34, 2-(2-cyclopropyl-4-methoxyphenyl)-8-hydroxy-3-(oxazol-5-ylmethyl)-4-oxo-3,4-dihydrobenzo[4,5]thieno[2,3-d]pyrimidine-7-carboxylic acid] | 1000 to 100000 nM
6 | COc1ccc(-c2nc3sc4c(O)c(-c5ccccc5)ccc4c3c(=O)n2Cc2cnco2)c(C2CC2)c1 [Example 35, 2-(2-cyclopropyl-4-methoxyphenyl)-8-hydroxy-3-(oxazol-5-ylmethyl)-7-phenylbenzo[4,5]thieno[2,3-d]pyrimidin-4(3H)-one] | 1000 to 100000 nM
7 | COc1ccc(-c2nc3sc4c(Br)c(O)ccc4c3c(=O)n2Cc2cnco2)c(C2CC2)c1 [Example 37, 8-bromo-2-(2-cyclopropyl-4-methoxyphenyl)-7-hydroxy-3-(oxazol-5-ylmethyl)benzo[4,5]thieno[2,3-d]pyrimidin-4(3H)-one] | 1000 to 100000 nM
8 | COc1ccc(-c2nc3sc4c(ccc5oc(=O)[nH]c54)c3c(=O)n2Cc2cnco2)c(C2CC2)c1 [Example 38, 8-(2-cyclopropyl-4-methoxyphenyl)-7-(oxazol-5-ylmethyl)oxazolo[4″,5″:3′,4′]benzo[1′,2′:4,5]thieno[2,3-d]pyrimidine-2,6(1H,7H)-dione] | 1000 to 100000 nM
9 | COC(=O)Cn1c(-c2ccc(OC)cc2C2CC2)nc2sc3c(O)c(Cl)ccc3c2c1=O [Example 45, methyl 2-(7-chloro-2-(2-cyclopropyl-4-methoxyphenyl)-8-hydroxy-4-oxobenzo[4,5]thieno[2,3-d]pyrimidin-3(4H)-yl)acetate] | 100 to 500 nM
10 | COc1ccc(-c2nc3sc4c(O)c(Cl)ccc4c3c(=O)n2CC(=O)O)c(C2CC2)c1 [Example 46, 2-(7-chloro-2-(2-cyclopropyl-4-methoxyphenyl)-8-hydroxy-4-oxobenzo[4,5]thieno[2,3-d]pyrimidin-3(4H)-yl)acetic acid] | 1000 to 100000 nM
11 | COc1ccc(-c2nc3sc4c(O)c(Cl)ccc4c3c(=O)n2Cc2ccno2)c(C2CC2)c1 [Example 47, 7-chloro-2-(2-cyclopropyl-4-methoxyphenyl)-8-hydroxy-3-(isoxazol-5-ylmethyl)benzo[4,5]thieno[2,3-d]pyrimidin-4(3H)-one] | < 100 nM
12 | COc1ccc(-c2nc3sc4c(O)c(Cl)ccc4c3c(=O)n2Cc2cnc(C3CC3)o2)c(C2CC2)c1 [Example 49, 7-chloro-2-(2-cyclopropyl-4-methoxyphenyl)-3-((2-cyclopropyloxazol-5-yl)methyl)-8-hydroxybenzo[4,5]thieno[2,3-d]pyrimidin-4(3H)-one] | < 100 nM
13 | COc1ccc(-c2nc3sc4c(O)c(Cl)ccc4c3c(=O)n2CC(=O)NCCO)c(C2CC2)c1 [Example 51, 2-(7-chloro-2-(2-cyclopropyl-4-methoxyphenyl)-8-hydroxy-4-oxobenzo[4,5]thieno[2,3-d]pyrimidin-3(4H)-yl)-N-(2-hydroxyethyl)acetamide] | 500 to 1000 nM
14 | COc1ccc(-c2nc3sc4c(O)c(Cl)ccc4c3c(=O)n2Cc2sc(C)nc2C)c(C2CC2)c1 [Example 53, 7-chloro-2-(2-cyclopropyl-4-methoxyphenyl)-3-((2,4-dimethylthiazol-5-yl)methyl)-8-hydroxybenzo[4,5]thieno[2,3-d]pyrimidin-4(3H)-one] | < 100 nM
15 | COc1ccc(-c2nc3sc4c(O)c(Cl)ccc4c3c(=O)n2CC2=NCCO2)c(C2CC2)c1 [Example 54, 7-chloro-2-(2-cyclopropyl-4-methoxyphenyl)-3-((4,5-dihydrooxazol-2-yl)methyl)-8-hydroxybenzo[4,5]thieno[2,3-d]pyrimidin-4(3H)-one] | 100 to 500 nM
16 | COc1ccc(-c2nc3sc4c(O)ccc(F)c4c3c(=O)n2Cc2cnco2)c(C2CC2)c1 [Example 55, 2-(2-cyclopropyl-4-methoxyphenyl)-5-fluoro-8-hydroxy-3-(oxazol-5-ylmethyl)benzo[4,5]thieno[2,3-d]pyrimidin-4(3H)-one] | < 100 nM
17 | COc1ccc(-c2nc3sc4c(O)c(F)ccc4c3c(=O)n2Cc2cnco2)c(C2CC2)c1 [Example 56, 2-(2-cyclopropyl-4-methoxyphenyl)-7-fluoro-8-hydroxy-3-(oxazol-5-ylmethyl)benzo[4,5]thieno[2,3-d]pyrimidin-4(3H)-one] | < 100 nM
18 | COc1ccc(-c2nc3sc4c(O)c(Cl)ccc4c3c(=O)n2Cc2cnoc2)c(C2CC2)c1 [Example 57, 7-chloro-2-(2-cyclopropyl-4-methoxyphenyl)-8-hydroxy-3-(isoxazol-4-ylmethyl)benzo[4,5]thieno[2,3-d]pyrimidin-4(3H)-one] | < 100 nM
19 | COc1ccc(-c2nc3sc4c(O)c(Cl)ccc4c3c(=O)n2Cc2cnc(C)nc2)c(C2CC2)c1 [Example 58, 7-chloro-2-(2-cyclopropyl-4-methoxyphenyl)-8-hydroxy-3-((2-methylpyrimidin-5-yl)methyl)benzo[4,5]thieno[2,3-d]pyrimidin-4(3H)-one] | < 100 nM
20 | COc1ccc(-c2nc3sc4c(O)c(Cl)ccc4c3c(=O)n2Cc2cnc(C)o2)c(C2CC2)c1 [Example 59, 7-chloro-2-(2-cyclopropyl-4-methoxyphenyl)-8-hydroxy-3-((2-methyloxazol-5-yl)methyl)benzo[4,5]thieno[2,3-d]pyrimidin-4(3H)-one] | < 100 nM
21 | Cc1cc(Cn2c(-c3cc(F)c(F)cc3C3CC3)nc3sc4c(O)c(Cl)ccc4c3c2=O)on1 [Example 60, 7-chloro-2-(2-cyclopropyl-4,5-difluorophenyl)-8-hydroxy-3-((3-methylisoxazol-5-yl)methyl)benzo[4,5]thieno[2,3-d]pyrimidin-4(3H)-one] | < 100 nM
